From US10294202B2, “Pyrrolidinones as herbicides” (FMC Corporation, priority 2013, dated 2019)

How the values were obtained:
ducksalad = experiment: Test C flooded paddy test; type: in vivo, Heteranthera limosa; conditions: Flood
Summary of the method: (§1)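 Visual ratings from 0, no effect, to 100, complete control, were made against untreated controls after 13–15 greenhouse days. Compounds had gone straight into paddy water 3 cm above the soil, kept at that depth, on 2-leaf-stage plants.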

sedge, umbrella = experiment: Test C flooded paddy test; type: in vivo, Cyperus difformis; conditions: Flood
Summary of the method: as §1

galium = experiment: Test A postemergence herbicide test; type: in vivo, Galium aparine
Summary of the method: (§2)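 Ratings compare treated with untreated plants roughly 10 days after a postemergence application made at the one- to two-leaf stage. Scoring uses 0–100, where 0 means no effect and 100 complete control.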

blackgrass = experiment: Test A postemergence herbicide test; type: in vivo, Alopecurus myosuroides
Summary of the method: as §2

wheat = experiment: Test A pre-/postemergence herbicide test; type: in vivo, Triticum aestivum; conditions: Postemergence
Summary of the method: (§3)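 Greenhouse pot test with pre- and postemergence application of surfactant-containing solvent formulations. Postemergence plants were 2–10 cm, one- to two-leaf stage. Response scored visually after ~10 days, 0 (no effect) to 100 (complete control).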

ragweed = experiment: Test A pre-/postemergence herbicide test; type: in vivo, Ambrosia elatior; conditions: for Plant response rating, Ragweed: 0 to 100 scale
Summary of the method: as §3

corn = experiment: Test A pre-/postemergence herbicide test; type: in vivo, Zea mays; conditions: Postemergence
Summary of the method: as §3

barnyardgrass [1] = experiment: Test A pre-/postemergence herbicide test; type: in vivo, Echinochloa crus-galli
Summary of the method: as §3

kochia = experiment: Test A pre-/postemergence herbicide test; type: in vivo, Kochia scoparia; conditions: for Plant response rating, Kochia: 0 to 100 scale
Summary of the method: as §3

giant foxtail = experiment: Test A pre-/postemergence herbicide test; type: in vivo, Setaria faberii; conditions: for Plant response rating, Foxtail, Giant: 0 to 100 scale
Summary of the method: as §3

pigweed = experiment: Test A pre-/postemergence herbicide test; type: in vivo, Amaranthus retroflexus; conditions: for Plant response rating, Pigweed: 0 to 100 scale
Summary of the method: as §3

ryegrass, Italian = experiment: Test A pre-/postemergence herbicide test; type: in vivo, Lolium multiflorum; conditions: for Plant response rating, Ryegrass, Italian: 0 to 100 scale
Summary of the method: as §3

barnyardgrass [2] = experiment: Test C flooded paddy test; type: in vivo, Echinochloa crus-galli; conditions: Flood
Summary of the method: as §1

rice = experiment: Test C flooded paddy test; type: in vivo, Oryza sativa; conditions: Flood
Summary of the method: as §1

[3] = 125 g ai/ha, scale of 0 to 100 where 0 is no effect and 100 is complete control, 13 to 15 days
[4] = 125 g ai/ha, 0 to 100 scale, 0 no effect, 100 complete control
[5] = 500 g ai/ha, 0 to 100 scale (0 no effect, 100 complete control)
[6] = Postemergence, 125 g ai/ha, 0 no effect, 100 complete control
[7] = Preemergence, 125 g ai/ha, visual rating on 0 to 100 scale (0 no effect, 100 complete control)

For `O=C1NCC(c2cccc(C(F)(F)F)c2)C1C(=O)Nc1nncs1` (racemic) [Compound 111], the “Plant response rating, Ducksalad” value (ducksalad; [3]) was 0, the “Plant response rating, Ducksalad” value (ducksalad; 250 g ai/ha, scale 0 to 100) was 0 and the “Plant response rating, Ducksalad” value (ducksalad; 500 g ai/ha, scale 0 to 100) was 30. For the same molecule, the “Plant response rating, Ducksalad” value (ducksalad; 1000 g ai/ha, scale 0 to 100) was 40, the “Plant response rating, Sedge, Umbrella” value (sedge, umbrella; [3]) was 0 and the “Plant response rating, Sedge, Umbrella” value (sedge, umbrella; 250 g ai/ha, scale 0 to 100) was 0. For the same molecule, the “Plant response rating, Sedge, Umbrella” value (sedge, umbrella; 500 g ai/ha, scale 0 to 100) was 0, the “Plant response rating, Sedge, Umbrella” value (sedge, umbrella; 1000 g ai/ha, scale 0 to 100) was 0 and the “Plant response rating, Galium” value (galium; [4]) was 0. For the same molecule, the “Galium plant response rating (0 to 100 scale, 0 is no effect, 100 is complete control)” value (galium; 500 g ai/ha) was 0, the “Plant response rating, Blackgrass” value (blackgrass; [4]) was 0 and the “Plant response rating, Blackgrass” value (blackgrass; [5]) was 0. For the same molecule, the “Plant response rating, Wheat” value (wheat; [4]) was 0, the “Wheat plant response rating (0 to 100 scale, 0 is no effect, 100 is complete control)” value (wheat; 500 g ai/ha) was 0 and the “Plant response rating, Ragweed” value (ragweed; [6]) was 0. The “Ragweed plant response rating (0 to 100 scale, 0 is no effect, 100 is complete control)” value (ragweed; Postemergence, 500 g ai/ha) was 0, the “Ragweed plant response rating” value (ragweed; [7]) was 0 and the “Plant response rating, Ragweed” value (ragweed; preemergence, 500 g ai/ha) was 0. The “Plant response rating, Corn” value (corn; [4]) was 0, the “Plant response rating, Corn” value (corn; [5]) was 0 and the “Plant response rating, Barnyardgrass” value (barnyardgrass [1]; Postemergence, 125 g ai/ha, 0 to 100 scale, 0 no effect, 100 complete control) was 0. For the same molecule, the “Plant response rating, Barnyardgrass” value (barnyardgrass [1]; Postemergence, 500 g ai/ha, 0 to 100 scale (0 no effect, 100 complete control)) was 0, the “Barnyardgrass plant response rating” value (barnyardgrass [1]; [7]) was 0 and the “Plant response rating, Barnyardgrass” value (barnyardgrass [1]; preemergence, 500 g ai/ha, 0 to 100 scale (0 no effect, 100 complete control)) was 0. For the same molecule, the “Plant response rating, Kochia” value (kochia; [6]) was 0, the “Kochia plant response rating (0 to 100 scale, 0 is no effect, 100 is complete control)” value (kochia; Postemergence, 500 g ai/ha) was 0 and the “Kochia plant response rating” value (kochia; [7]) was 0. For the same molecule, the “Plant response rating, Kochia” value (kochia; preemergence, 500 g ai/ha) was 0, the “Plant response rating, Foxtail, Giant” value (giant foxtail; [6]) was 0 and the “Foxtail, Giant plant response rating (0 to 100 scale, 0 is no effect, 100 is complete control)” value (giant foxtail; Postemergence, 500 g ai/ha) was 0. The “Foxtail, Giant plant response rating” value (giant foxtail; [7]) was 0, the “Plant response rating, Foxtail, Giant” value (giant foxtail; preemergence, 500 g ai/ha) was 0 and the “Plant response rating, Pigweed” value (pigweed; [6]) was 0. The “Pigweed plant response rating (0 to 100 scale, 0 is no effect, 100 is complete control)” value (pigweed; Postemergence, 500 g ai/ha) was 0, the “Pigweed plant response rating” value (pigweed; [7]) was 0 and the “Plant response rating, Pigweed” value (pigweed; preemergence, 500 g ai/ha) was 0. For the same molecule, the “Plant response rating, Ryegrass, Italian” value (ryegrass, Italian; [6]) was 0, the “Ryegrass, Italian plant response rating (0 to 100 scale, 0 is no effect, 100 is complete control)” value (ryegrass, Italian; Postemergence, 500 g ai/ha) was 0 and the “Ryegrass, Italian plant response rating” value (ryegrass, Italian; [7]) was 0. The “Plant response rating, Ryegrass, Italian” value (ryegrass, Italian; preemergence, 500 g ai/ha) was 0, the “Plant response rating, Barnyardgrass” value (barnyardgrass [2]; [3]) was 0 and the “Plant response rating, Barnyardgrass” value (barnyardgrass [2]; 250 g ai/ha, scale 0 to 100) was 0. For the same molecule, the “Plant response rating, Barnyardgrass” value (barnyardgrass [2]; 500 g ai/ha, scale 0 to 100) was 0, the “Plant response rating, Barnyardgrass” value (barnyardgrass [2]; 1000 g ai/ha, scale 0 to 100) was 0 and the “Plant response rating, Rice” value (rice; [3]) was 0. For the same molecule, the “Plant response rating, Rice” value (rice; 250 g ai/ha, scale 0 to 100) was 0, the “Plant response rating, Rice” value (rice; 500 g ai/ha, scale 0 to 100) was 0 and the “Plant response rating, Rice” value (rice; 1000 g ai/ha, scale 0 to 100) was 0.
